Results on 27 compounds are retold here after the SangsterLogP compilation.

By logP is commonly meant a log measure of how a compound divides between an organic and an aqueous phase. Lower therefore signals lower lipophilicity. Consider `CCOc1cccc(NC(=O)OCCN(C)C)c1`, for which the logP was determined as 0.8.

Regarding `CCCOc1cccc(NC(=O)OCCN(C)C)c1`, the logP was 1.04.

With `CCCCCCCOc1cccc(NC(=O)OCCN(C)C)c1`, the logP was 2.43.

`CCCCCCCCOc1cccc(NC(=O)OCCN(C)C)c1` had a logP of 2.87.

The compound `CCCCOc1cccc(NC(=O)OCCN(C)C)c1` returned a logP of 1.35.

`CCCCCCCCOc1ccc(NC(=O)OCCN(C)C)cc1` registered a logP of 3.26.

Compound `CCCCCCCOc1ccc(NC(=O)OCCN(C)C)cc1` had a logP of 2.93.

For the compound `CCOc1ccc(NC(=O)OCCN(C)C)cc1`, the logP was 1.14.

For `CCCCOc1ccccc1NC(=O)OCCN(C)C`, the logP was found to be 1.5.

For the compound `COc1ccccc1NC(=O)OCCN(C)C`, the logP turned out to be 1.15.

Compound `CCCOc1ccc(NC(=O)OCCN(C)C)cc1` came in with a logP of 1.41.

The compound `CCOc1ccccc1NC(=O)OCCN(C)C` came in with a logP of 1.15.

For the compound `CCCCCCCCCOc1ccccc1NC(=O)OCCN(C)C`, the logP is 3.35.

As for `CCCCCCCCCCOc1ccccc1NC(=O)OCCN(C)C`, the logP was 3.82.

In the case of `COc1ccc(NC(=O)OCCN(C)C)cc1`, the log partition coefficient (logP) is 0.97.

For the compound `CCCCCOc1ccccc1NC(=O)OCCN(C)C`, the logP stood at 1.83.

`CCCCOc1ccc(NC(=O)OCCN(C)C)cc1` registered a logP of 1.77. The logP values of the last two compounds are within 0.2 log units of each other.

`CCCCCCCCOc1ccccc1NC(=O)OCCN(C)C` registered a logP of 2.98.

On to `CCCCCCCCCCOc1ccc(NC(=O)OCCN(C)C)cc1`, for which the lipophilicity (logP) was determined as 4.02.

`CCCCCCCCCOc1cccc(NC(=O)OCCN(C)C)c1` registered a logP of 3.21.

In turn, `CCCCCCCOc1ccccc1NC(=O)OCCN(C)C` showed a logP of 2.5.

`CCCCCOc1cccc(NC(=O)OCCN(C)C)c1` came in with a logP of 1.72.

Compound `CCCCCCOc1ccc(NC(=O)OCCN(C)C)cc1` yielded a logP of 2.47.

The compound `CCCOc1ccccc1NC(=O)OCCN(C)C` displayed a logP of 1.24.

Consider `CCCCCOc1ccc(NC(=O)OCCN(C)C)cc1`, for which the log partition coefficient (logP) worked out at 2.11.

In turn, `CCCCCCOc1ccccc1NC(=O)OCCN(C)C` displayed a lipophilicity (logP) of 2.13. The logP values of the last two compounds are within 0.2 log units of each other.

For `CCCCCCOc1cccc(NC(=O)OCCN(C)C)c1`, the logP amounted to 2.01. This logP and that of the compound before are within 0.2 log units of each other.
